According to patent US12157730B2, “Heteroaryl derivative, method for producing same, and pharmaceutical composition comprising same as effective component” (VORONOI INC., priority 2019, dated 2024):

target: T1, Ba/F3 cell EGFR Exon20 ins NPH (Homo sapiens, UniProt P00533, INS773NPH); experiment: Ba/F3 cell proliferation suppression, EGFR Exon20 ins NPH; format: cell-based; conditions: GI50 class; Ba/F3 cell line with NPH inserted at Exon20 of EGFR; 72 hours
T1 construct: expressed in transfected cells; host or cells: Ba/F3
Method in brief: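 72 h compound exposure, 0.3 nM–50 um (12 points, 3:1 dilution in DMSO); viability by CellTiter-Glo luminescence. Ba/F3 medium: RPMI-1640, 10% FBS, 5 ng/ml IL-3, 1 ug/ml puromycin for transduced cells. GI50 vs control, n=3.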

Row | Compound | Ba/F3 (NPH) Activity
1 | C=CC(=O)Nc1cc(Nc2cc(N3OCC[C@H]3Cc3ccccc3)ncn2)c(OC)cc1N1CCN(C2CCN(C)CC2)CC1 [compound 974, N-(5-((6-((R)-3-benzylisoxazolidine-2-yl)pyrimidine-4-yl)amino)-4-methoxy-2-(4-(1-methylpiperidine-4-yl)piperazine-1-yl)phenyl)acrylamide] | C (500 nM ≤ GI50 < 5000 nM)
2 | N-(2-(4-(4- (cyclopropylmethyl) piperazine-1-yl) piperidine-1-yl)-5-((6- ((S)-3-(2,6)- difluorophenyl) isoxazolidine-2-yl) pyrimidine-4-yl)amino)- 4-methoxyphenyl) acrylamide [Example 95] | C (500 nM ≤ GI50 < 5000 nM)
3 | C=CC(=O)Nc1cc(Nc2cc(N3OCC[C@@H]3c3ccc(Cl)c(Cl)c3)ncn2)c(OC)cc1N1C[C@@H]2C[C@H]1CN2CC [compound 678, N-(5-((6-((R)-3-(3,4-dichlorophenyl)isoxazolidine-2-yl)pyrimidine-4-yl)amino)-2-((1S,4S)-5-ethyl-2,5-diazabicyclo[2.2.1]heptane-2-yl)-4-methoxyphenyl) acrylamide] | A (GI50 < 50 nM)
4 | C=CC(=O)Nc1cc(Nc2cc(N3OCC[C@@H]3c3cccc(OC)c3)ncn2)c(OC)cc1N1CCC(N2CC[C@@H](N(C)C)C2)CC1 [compound 728, N-(2-(4-((R)-3-(dimethylamino)pyrolidine-1-yl)piperidine-1-yl)-4-methoxy-5-((6-((R)-3-(3-methoxyphenyl)isoxazolidine-2-yl)pyrimidine-4-yl)amino)phenyl)acrylamide] | A (GI50 < 50 nM)
5 | C=CC(=O)Nc1cc(Nc2cc(N3OCC[C@@H]3c3ccc(F)c(Cl)c3)ncn2)c(OC)cc1N1CCN(CC)CC1 [compound 723, N-(5-((6-((R)-3-(3-chloro-4-fluorophenyl)isoxazolidine-2-yl)pyrimidine-4-yl)amino)-2-(4-ethylpiperazine-1-yl)-4-methoxyphenyl) acrylamide] | A (GI50 < 50 nM)
6 | C=CC(=O)Nc1cc(Nc2cc(N3OCC[C@@H]3c3ccc(Cl)cc3F)ncn2)c(OC)cc1N1CCC(N(C)C)CC1 [compound 403, N-(5-((6-((R)-3-(4-chloro-2-fluorophenyl)isoxazolidine-2-yl)pyrimidine-4-yl)amino)-2-(4-(dimethylamino)piperidine-1-yl)-4-methoxyphenyl) acrylamide] | A (GI50 < 50 nM)
7 | C=CC(=O)Nc1cc(Nc2cc(N3OCC[C@@H]3c3ccc(Cl)cc3F)ncn2)c(OC)cc1N1CCC(N2C[C@H]3C[C@@H]2CO3)CC1 [compound 548, N-(2-(4-((1R,4R)-2-oxa-5-azabicyclo[2.2.1]heptane-5-yl)piperidine-1-yl)-5-((6-((R)-3-(4-chloro-2-fluorophenyl)isoxazolidine-2-yl)pyrimidine-4-yl)amino)-4-methoxyphenyl) acrylamide] | A (GI50 < 50 nM)
8 | C=CC(=O)Nc1cc(Nc2cc(N3OCC[C@@H]3c3cccc(C#N)c3)ncn2)c(OC)cc1N1CCC(N2CCN(C(C)C)CC2)CC1 [compound 494, N-(5-((6-((R)-3-(3-cyanophenyl)isoxazolidine-2-yl)pyrimidine-4-yl)amino)-2-(4-(4-isopropylpiperazine-1-yl)piperidine-1-yl)-4-methoxyphenyl) acrylamide] | A (GI50 < 50 nM)
9 | C=CC(=O)Nc1cc(Nc2cc(N3OCC[C@@H]3Cc3cccc(Cl)c3Cl)ncn2)c(OC)cc1N1CCC(N2CCN(C3CC3)[C@@H](C)C2)CC1 [compound 981, N-(2-(4-((S)-4-cyclopropyl-3-methylpiperazine-1-yl)piperidine-1-yl)-5-((6-((S)-3-(2,3-dichlorobenzyl)isoxazolidine-2-yl)pyrimidine-4-yl)amino)-4-methoxyphenyl) acrylamide] | A (GI50 < 50 nM)
10 | C=CC(=O)Nc1cc(Nc2cc(N3OCC[C@@H]3c3ccc(Cl)cc3F)ncn2)c(OC)cc1N1CCC(N2CC[C@@H](N(C)C)C2)CC1 [compound 404, N-(5-((6-((R)-3-(4-chloro-2-fluorophenyl)isoxazolidine-2-yl)pyrimidine-4-yl)amino)-2-(4-((R)-3-(dimethylamino)pyrolidine-1-yl)piperidine-1-yl)-4-methoxyphenyl) acrylamide] | B (50 nM ≤ GI50 < 500 nM)
11 | C=CC(=O)Nc1cc(Nc2cc(N3OCC[C@@H]3Cc3ccccc3)ncn2)c(OC)cc1N(C)CCN(C)C [compound 947, N-(5-((6-((S)-3-benzylisoxazolidine-2-yl)pyrimidine-4-yl)amino)-2-((2-(dimethylamino)ethyl)(methyl)amino)-4-methoxyphenyl) acrylamide] | A (GI50 < 50 nM)
12 | C=CC(=O)Nc1cc(Nc2cc(N3OCC[C@@H]3c3cccc(C(F)(F)F)c3)ncn2)c(OC)cc1N1CCN(C2CC2)CC1 [compound 940, N-(2-(4-cyclopropylpiperazine-1-yl)-4-methoxy-5-((6-((R)-3-(3-(trifluoromethyl)pheyyl)isoxazolidine-2-yl)pyrimidine-4-yl)amino)phenyl) acrylamide] | B (50 nM ≤ GI50 < 500 nM)
13 | C=CC(=O)Nc1cc(Nc2cc(N3OCC[C@@H]3c3cccc(F)c3F)ncn2)c(OC)cc1N1CC[C@@H](N(C)C)C1 [compound 927, N-(5-((6-((R)-3-(2,3-difluorophenyl)isoxazolidine-2-yl)pyrimidine-4-yl)amino)-2-((R)-3-(dimethylamino)pyrolidine-1-yl)-4-methoxyphenyl) acrylamide] | A (GI50 < 50 nM)
14 | C=CC(=O)Nc1cc(Nc2cc(N3OCC[C@@H]3c3cccc(Cl)c3)ncn2)c(OC)cc1N1CC[C@@H](N2CCOCC2)C1 [compound 465, N-(5-((6-((R)-3-(3-chlorophenyl)isoxazolidine-2-yl)pyrimidine-4-yl)amino)-4-methoxy-2-((R)-3-morpholinopyrolidine-1-yl)phenyl)acrylamide] | A (GI50 < 50 nM)
15 | C=CC(=O)Nc1cc(Nc2cc(N3OCC[C@@H]3c3cccc(C#N)c3)ncn2)c(OC)cc1N1CCC(N2CCN(C3CCC3)CC2)CC1 [Example 183, N-(5-((6-((R)-3-(3-cyanophenyl)isoxazolidine-2-yl)pyrimidine-4-yl)amino)-2-(4-(4-cyclobutylpiperazine-1-yl)piperidine-1-yl)-4-methoxyphenyl) acrylamide] | A (GI50 < 50 nM)
16 | C=CC(=O)Nc1cc(Nc2cc(N3OCC[C@@H]3c3cccc(F)c3)ncn2)c(OC)cc1N1CCN(CC)CC1 [Example 246, N-(2-(4-ethylpiperazine-1-yl)-5-((6-((R)-3-(3-fluorophenyl)isoxazolidine-2-yl)pyrimidine-4-yl)amino)-4-methoxyphenyl) acrylamide] | A (GI50 < 50 nM)
17 | C=CC(=O)Nc1cc(Nc2cc(N3OCC[C@@H]3c3ccc(F)c(Cl)c3F)ncn2)c(OC)cc1N1CCC(N(C)C)CC1 [compound 638, N-(5-((6-((R)-3-(3-chloro-2,4-difluorophenyl)isoxazolidine-2-yl)pyrimidine-4-yl)amino)-2-(4-(dimethylamino)piperidine-1-yl)-4-methoxyphenyl) acrylamide] | A (GI50 < 50 nM)
18 | C=CC(=O)Nc1cc(Nc2cc(N3OCC[C@@H]3c3cccc(C#N)c3)ncn2)c(OC)cc1N1CCC(N2CCN(C3COC3)CC2)CC1 [Example 196, N-(5-((6-((R)-3-(3-cyanophenyl)isoxazolidine-2-yl)pyrimidine-4-yl)amino)-4-methoxy-2-(4-(4-(oxetane-3-yl)piperazine-1-yl)piperidine-1-yl)phenyl)acrylamide] | A (GI50 < 50 nM)
19 | C=CC(=O)Nc1cc(Nc2cc(N3OCC[C@@H]3c3ccc(Cl)c(Cl)c3F)ncn2)c(OC)cc1N1CC[C@@H](N2CCOCC2)C1 [Example 294, N-(5-((6-((R)-3-(3,4-dichloro-2-fluorophenyl)isoxazolidine-2-yl)pyrimidine-4-yl)amino)-4-methoxy-2-((R)-3-morpholinopyrolidine-1-yl)phenyl)acrylamide] | B (50 nM ≤ GI50 < 500 nM)
20 | C=CC(=O)Nc1cc(Nc2cc(N3OCC[C@@H]3c3ccc(Cl)cc3F)ncn2)c(OC)cc1N1CCC(N2C[C@@H]3C[C@H]2CO3)CC1 [compound 373, N-(2-(4-((1S,4S)-2-oxa-5-azabicyclo[2.2.1]heptane-5-yl)piperidine-1-yl)-5-((6-((R)-3-(4-chloro-2-fluorophenyl)isoxazolidine-2-yl)pyrimidine-4-yl)amino)-4-methoxyphenyl) acrylamide] | A (GI50 < 50 nM)
21 | C=CCN1CCN(C2CCN(c3cc(OC)c(Nc4cc(N5OCC[C@@H]5c5ccc(F)c(Cl)c5)ncn4)cc3NC(=O)C=C)CC2)CC1 [Example 89, N-(2-(4-(4-allylpiperazine-1-yl)piperidine-1-yl)-5-((6-((R)-3-(3-chloro-4-fluorophenyl)isoxazolidine-2-yl)pyrimidine-4-yl)amino)-4-methoxyphenyl) acrylamide] | A (GI50 < 50 nM)
22 | C=CC(=O)Nc1cc(Nc2cc(N3OCC[C@@H]3c3cc(F)cc(F)c3)ncn2)c(OC)cc1N1CCC(N2CCN(C3COC3)CC2)CC1 [Example 79, N-(5-((6-((R)-3-(3,5-difluorophenyl)isoxazolidine-2-yl)pyrimidine-4-yl)amino)-4-methoxy-2-(4-(4-(oxetane-3-yl)piperazine-1-yl)piperidine-1-yl)phenyl)acrylamide] | A (GI50 < 50 nM)
23 | C=CC(=O)Nc1cc(Nc2cc(N3OCC[C@@H]3c3cccc(F)c3Cl)ncn2)c(OC)cc1N1CCC(N2CCN(C3CC3)C[C@H]2C)CC1 [Example 143, N-(5-((6-((R)-3-(2-chloro-3-fluorophenyl)isoxazolidine-2-yl)pyrimidine-4-yl)amino)-2-(4-((R)-4-cyclopropyl-2-methylpiperazine-1-yl)piperidine-1-yl)-4-methoxyphenyl) acrylamide] | A (GI50 < 50 nM)
